Assays:
Format in all cases: cell-based
[1] = system: Raji cells; assay: Binding to and staining of Raji cells (Example B1b); conditions: photomicrographs; for binding to Raji cells: FIG. 2B, Example B1b; for binding to and staining of Raji cells: FIG. 4B
[2] = system: Raji cells; assay: Adherence of Raji cells to rabbit dorsal femoral condyle explants; conditions: photomicrographs, FIG. 6B
[3] = system: Raji cells; assay: Binding to Raji cells (fluorescence, Gel Logic system); conditions: 10 μM in PBS; 1, 5, 15 or 30 minutes; 530 nm/600 nm; FIG. 2B
Method: 10^6 Raji cells were incubated with 10 μM Compound 4 or 10 μM Compound 20 in PBS or with PBS alone for 1, 5, 15 or 30 minutes. Cells were washed once in PBS and then the fluorescence of Compound 4 or Compound 20 was analyzed in a Gel Logic system with 530 nm/600 nm excitation/emission settings.

[4] = system: Raji cells; assay: Binding to Raji cells (visual inspection of staining); conditions: 10 μM in PBS, 30 min; FIG. 4B
Method: Raji cells were incubated in PBS without Compounds 4 or 20 or with 10 μM Compound 4 or 10 μM Compound 20 in PBS for 30 min and then washed twice with 1 mL PBS. Samples were visually inspected to determine staining

[5] = system: human MSCs / rabbit dorsal femoral condyle explants; assay: Adherence of calcein-labeled human MSCs to rabbit dorsal femoral condyle explants; conditions: MSCs incubated with compound (Compound 4: 5 μM or 10 μM), 30 min or 10 min; 475/535 nm; FIG. 6A
Method: Human MSCs were labeled with calcein for 30 min, washed with PBS, and incubated with Compound 4 (5 μM or 10 μM) or with PBS for 30 min. Rabbit dorsal femoral condyle explants were then incubated for 30 min with (1) the PBS-incubated, calcein-labeled MSCs, (2) the calcein-labeled MSCs incubated with 5 μM Compound 4, or (3) the calcein-labeled MSCs incubated with 10 μM Compound 4. Explants were washed twice with excess PBS, and the 475/535 nm filter set on the Molecular Imaging Gel Logic system was used to detect the binding of MSCs to the explants by detecting the calcein. In another experiment, the procedure was repeated with two batches of Compound 4, and with Compound 20, with an incubation time of 10 min instead of 30 min.

[6] = system: MSCs from sheep bone marrow; assay: Differentiation of sheep MSCs to chondrocytes in pellet culture (modified Bern Score); conditions: for Cell Distance / Matrix Stain / Morphology: score 0-3; for Final Score (Bern Score): score 0-9
Method: Compounds of the invention were assessed in an in vitro pellet cell culture model of chondrogenesis.
Conditions tested were: • a. (1) Priming: exposure of cells to TGFβ3 prior to incubation with Compound 4 or Compound 20; • b. (2) Dose: Concentration of Compound 4 or Compound 20 that cells were incubated with prior to pellet culture; and • c. (3) Media: presence or absence of TGFβ3 in the media used for the 3-week pellet culture duration.
A population of cells enriched for MSCs from sheep bone marrow was harvested, cultured and expanded. Cells from passage 3 (P3) were incubated with either chondrogenic differentiation medium for the Priming “+” groups or chondrogenic differentiation medium without TGFβ3 for the Priming “−” groups. Following centrifugation at 400×g for 5 min and gentle removal of the supernatant, cells were re-suspended with the appropriate number of cells in Compound 4 or Compound 20 in 1×PBS, pH 7, at following concentrations: 10 μM, 3.16 μM, 1 μM, and 0.316 μM of Compound 4; or 10 μM and 1 μM of Compound 20. For control conditions, cells were incubated in 1×PBS at pH 7. All treatment groups were then incubated for 30 min in the dark with nutation. Following centrifugation at 400×g for 5 min and gentle removal of the supernatant, cells were re-suspended and washed with 1×PBS at pH 7 and spun at 400×g for 5 min to remove supernatant. Depending on the condition, cells were re-suspended cells in chondrogenic differentiation medium OR in chondrogenic medium without TGFb3. Cells were counted, and approximately 2.5×10^5 cells were plated into polypropylene 96-well plates incubated under standard pellet culture conditions for three weeks. Medium was changed 3× weekly.
Pellets were fixed in 10% formalin for at least 8 hours and then infiltrated with paraffin wax. Sections were then cut at approximately 5 microns and stained using safranin-orange, Fast Green, Haematoxylin-Eosin, and 1% Toluidine Blue.
Histological grading was performed according to a modified Bern Score to assess chondrogenic morphology of the cells and any matrix deposition by the cells according to the following three criteria:
The subcomponents of the Bern Score are additive. Accordingly, the Bern Score presents a maximum total score of 9 representing the best possible score and minimum score of 0 representing no chondrogenesis.
In this Example, the Bern Score for Control pellets is a proxy for chondrogenic capacity of the cell population using a standard pellet culture protocol. […] Pellets that were formed using the 30 minute incubation protocol with only PBS replacing Compound 4 (0 μM Compound 4) are referred to as “PBS pellets.”

[7] = system: Raji cells; assay: Viability of Raji cells treated with compound (Example B2); conditions: concentrations of 20 μM or below, FIG. 3C
[8] = system: Raji cells; assay: Raji cell viability, trypan blue staining; conditions: times and concentrations tested (at or below 20 μM), FIG. 3C
Method: Cell viability was measured by using trypan blue to stain dead cells. Cells (2×10^5) were incubated with various concentrations of Compound 4 for 30 min, and viable cells were counted and compared to the number of viable cells in an untreated sample. Values for treated cells were normalized to untreated cells.
In a similar fashion to Example B2a, Compound 20 was assessed for its effect on viability of Raji cells as determined by trypan blue staining, as described in Example B2a.

[9] = Differentiation Medium +, TGFβ3 Priming +, 0.316 μM
[10] = Differentiation Medium +, TGFβ3 Priming +, 1 μM
[11] = Differentiation Medium +, TGFβ3 Priming +, 3.16 μM
[12] = Differentiation Medium +, TGFβ3 Priming +, 10 μM
[13] = Differentiation Medium +, TGFβ3 Priming −, 0.316 μM
[14] = Differentiation Medium +, TGFβ3 Priming −, 1 μM
[15] = Differentiation Medium +, TGFβ3 Priming −, 3.16 μM
[16] = Differentiation Medium +, TGFβ3 Priming −, 10 μM
[17] = Differentiation Medium −, TGFβ3 Priming +, 0.316 μM
[18] = Differentiation Medium −, TGFβ3 Priming +, 1 μM
[19] = Differentiation Medium −, TGFβ3 Priming +, 3.16 μM
[20] = Differentiation Medium −, TGFβ3 Priming +, 10 μM

Cc1cc2nc3cc(C)c(NCCCCCCCCNc4cc5c(cc4C)nc4cc(C)c(N)cc4[n+]5-c4ccccc4)cc3[n+](-c3ccccc3)c2cc1N.[Cl-].[Cl-] [Compound 4, 7,7′-(octane-1,8-diylbis(azanediyl))bis(3-amino-2,8-dimethyl-5-phenylphenazin-5-ium) chloride]
binding to Raji cells [1]: binding | binding to and staining of Raji cells [1]: bind to and stain | adherence of Raji cells to rabbit dorsal femoral condyle explants [2]: promote adherence | Binding to Raji cells (fluorescence) [3]: bind to Raji cells | Binding to Raji cells (visual staining) [4]: bind to Raji cells | Adherence of calcein-labeled human MSCs to explants [5]: promote adherence | Chondrogenic capacity (in words) ([6]; 3.16 μM and differentiation medium): good chondrogenic capacity | Cell Distance [6, 9]: 3 | Matrix Stain [6, 9]: 3 | Morphology [6, 9]: 3 | Final Score (Bern Score) [6, 9]: 9 | Cell Distance [6, 10]: 2.5 | Matrix Stain [6, 10]: 3 | Morphology [6, 10]: 2 | Final Score (Bern Score) [6, 10]: 7.5 | Cell Distance [6, 11]: 2 | Matrix Stain [6, 11]: 2 | Morphology [6, 11]: 2 | Final Score (Bern Score) [6, 11]: 6 | Cell Distance [6, 12]: 0 | Matrix Stain [6, 12]: 0 | Morphology [6, 12]: 0 | Final Score (Bern Score) [6, 12]: 0 | Cell Distance [6, 13]: 2.5 | Matrix Stain [6, 13]: 3 | Morphology [6, 13]: 2.5 | Final Score (Bern Score) [6, 13]: 8 | Cell Distance [6, 14]: 2 | Matrix Stain [6, 14]: 2.5 | Morphology [6, 14]: 2 | Final Score (Bern Score) [6, 14]: 6.5 | Cell Distance [6, 15]: 2 | Matrix Stain [6, 15]: 2 | Morphology [6, 15]: 2 | Final Score (Bern Score) [6, 15]: 6 | Cell Distance [6, 16]: 0 | Matrix Stain [6, 16]: 0.5 | Morphology [6, 16]: 0 | Final Score (Bern Score) [6, 16]: 0.5 | Cell Distance [6, 17]: 0 | Matrix Stain [6, 17]: 0 | Morphology [6, 17]: 0 | Final Score (Bern Score) [6, 17]: 0 | Cell Distance [6, 18]: 0 | Matrix Stain [6, 18]: 0 | Morphology [6, 18]: 0 | Final Score (Bern Score) [6, 18]: 0 | Cell Distance [6, 19]: 0 | Matrix Stain [6, 19]: 0.5 | Morphology [6, 19]: 0 | Final Score (Bern Score) [6, 19]: 0.5 | Cell Distance [6, 20]: 0 | Matrix Stain [6, 20]: 0 | Morphology [6, 20]: 0 | Final Score (Bern Score) [6, 20]: 0

Cc1cc2nc3cc(C)c(NCCCCCCNC(=O)c4ccc(-c5ccc(C(=O)NCCCCCCNc6cc7c(cc6C)nc6cc(C)c(N)cc6[n+]7-c6ccccc6)cc5)cc4)cc3[n+](-c3ccccc3)c2cc1N.[Cl-].[Cl-] [Compound 20, (3-amino-7-{[6-({4-[4-({6-[(7-amino-5-chloranuide-2,8-dimethyl-5-phenyl-5λ^6,10-phenazin-5-ylium-3-yl)amino]hexyl}carbamoyl)phenyl]phenyl}formamido)hexyl]amino}-2,8-dimethyl-5-phenyl-5λ^6,10-phenazin-5-ylium-5-e)chloranuide]
binding to Raji cells [1]: binding | binding to and staining of Raji cells [1]: bind to and stain | viability of Raji cells relative to untreated control Raji cells [7]: do not affect | adherence of Raji cells to rabbit dorsal femoral condyle explants [2]: promote adherence | Binding to Raji cells (fluorescence) [3]: bind to Raji cells | Toxic effects on Raji cells (viability) [8]: did not have toxic effects | Binding to Raji cells (visual staining) [4]: bind to Raji cells | Adherence of calcein-labeled human MSCs to explants [5]: promote adherence | Cell Distance [6, 10]: 3 | Matrix Stain [6, 10]: 3 | Morphology [6, 10]: 2.5 | Final Score (Bern Score) [6, 10]: 8.5 | Cell Distance [6, 12]: 2.5 | Matrix Stain [6, 12]: 2.5 | Morphology [6, 12]: 2.5 | Final Score (Bern Score) [6, 12]: 7.5 | Cell Distance [6, 14]: 2.5 | Matrix Stain [6, 14]: 2.5 | Morphology [6, 14]: 2 | Final Score (Bern Score) [6, 14]: 7 | Cell Distance [6, 16]: 2 | Matrix Stain [6, 16]: 2 | Morphology [6, 16]: 2 | Final Score (Bern Score) [6, 16]: 6 | Cell Distance [6, 18]: 0 | Matrix Stain [6, 18]: 0 | Morphology [6, 18]: 0 | Final Score (Bern Score) [6, 18]: 0 | Cell Distance [6, 20]: 0 | Matrix Stain [6, 20]: 0 | Morphology [6, 20]: 0 | Final Score (Bern Score) [6, 20]: 0 | Chondrogenic capacity (in words) ([6]; either concentration tested (10 μM and 1 μM) and differentiation medium): good chondrogenic capacity
